{"source": "paper PMC11864979", "about": "“First-in-class ultralong-target-residence-time p38α inhibitors as a mitosis-targeted therapy for colorectal cancer” (Nature Cancer, 2025)", "assay_in_all_cases": "selectivity profiling in a panel of 340 wild-type kinases (Reaction Biology Europe)", "format_in_all_cases": "binding", "key": {"340 wild-type kinases [1]": {"molecular_target": "T1, 340 wild-type kinases (Homo sapiens, UniProt Q6XUX3)", "T1 construct": "purchased Reaction Biology Europe", "T1 sequence (Q6XUX3 1-929)": "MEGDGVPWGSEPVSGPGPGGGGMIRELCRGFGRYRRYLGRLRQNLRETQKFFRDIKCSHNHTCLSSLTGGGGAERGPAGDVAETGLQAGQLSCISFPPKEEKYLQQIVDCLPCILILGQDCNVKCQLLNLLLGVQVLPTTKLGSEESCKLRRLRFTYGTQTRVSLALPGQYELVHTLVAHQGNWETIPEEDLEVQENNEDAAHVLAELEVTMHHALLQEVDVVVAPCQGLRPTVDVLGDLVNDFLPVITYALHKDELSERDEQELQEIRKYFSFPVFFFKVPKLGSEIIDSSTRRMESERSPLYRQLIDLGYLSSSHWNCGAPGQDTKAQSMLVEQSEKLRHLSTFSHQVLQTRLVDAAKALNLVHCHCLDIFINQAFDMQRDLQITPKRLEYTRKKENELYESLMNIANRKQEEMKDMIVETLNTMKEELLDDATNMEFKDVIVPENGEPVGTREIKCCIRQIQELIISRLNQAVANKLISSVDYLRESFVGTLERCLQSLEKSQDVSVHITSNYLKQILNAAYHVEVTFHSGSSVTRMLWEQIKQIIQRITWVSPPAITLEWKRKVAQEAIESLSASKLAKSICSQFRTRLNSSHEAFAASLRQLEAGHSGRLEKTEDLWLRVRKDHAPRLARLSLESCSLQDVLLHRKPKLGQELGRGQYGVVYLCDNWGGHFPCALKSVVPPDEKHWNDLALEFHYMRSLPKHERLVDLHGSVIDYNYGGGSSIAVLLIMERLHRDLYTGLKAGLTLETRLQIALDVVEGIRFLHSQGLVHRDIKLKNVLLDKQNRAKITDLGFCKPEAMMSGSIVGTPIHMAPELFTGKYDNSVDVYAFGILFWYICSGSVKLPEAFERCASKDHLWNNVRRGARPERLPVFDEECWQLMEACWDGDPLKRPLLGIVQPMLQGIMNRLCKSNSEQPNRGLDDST"}, "340 wild-type kinases [2]": {"molecular_target": "T2, 340 wild-type kinases (Homo sapiens, UniProt P57059)", "T2 construct": "purchased Reaction Biology Europe", "T2 sequence (P57059 whole entry)": "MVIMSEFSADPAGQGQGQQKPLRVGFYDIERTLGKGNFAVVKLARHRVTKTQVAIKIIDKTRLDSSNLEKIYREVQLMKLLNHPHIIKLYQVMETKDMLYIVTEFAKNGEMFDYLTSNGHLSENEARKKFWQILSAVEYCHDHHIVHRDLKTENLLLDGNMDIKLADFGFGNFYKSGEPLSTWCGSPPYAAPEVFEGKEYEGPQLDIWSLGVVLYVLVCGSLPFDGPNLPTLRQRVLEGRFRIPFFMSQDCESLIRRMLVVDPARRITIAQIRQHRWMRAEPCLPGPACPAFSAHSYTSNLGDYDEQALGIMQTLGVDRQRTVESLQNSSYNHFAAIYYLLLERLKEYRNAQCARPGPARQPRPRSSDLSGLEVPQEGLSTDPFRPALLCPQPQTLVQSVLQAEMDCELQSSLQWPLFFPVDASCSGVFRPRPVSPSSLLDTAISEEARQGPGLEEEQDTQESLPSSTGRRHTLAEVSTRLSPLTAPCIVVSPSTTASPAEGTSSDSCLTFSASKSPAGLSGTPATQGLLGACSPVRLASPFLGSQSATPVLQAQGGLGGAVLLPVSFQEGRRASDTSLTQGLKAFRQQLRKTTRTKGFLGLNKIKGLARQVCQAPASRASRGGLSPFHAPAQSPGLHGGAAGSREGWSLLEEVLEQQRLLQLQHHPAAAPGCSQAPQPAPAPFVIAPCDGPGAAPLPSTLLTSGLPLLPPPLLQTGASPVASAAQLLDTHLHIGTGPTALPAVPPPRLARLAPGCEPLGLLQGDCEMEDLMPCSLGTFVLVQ"}, "340 wild-type kinases [3]": {"molecular_target": "T3, 340 wild-type kinases (Homo sapiens, UniProt Q07912)", "T3 construct": "purchased Reaction Biology Europe", "T3 sequence (Q07912 whole entry)": "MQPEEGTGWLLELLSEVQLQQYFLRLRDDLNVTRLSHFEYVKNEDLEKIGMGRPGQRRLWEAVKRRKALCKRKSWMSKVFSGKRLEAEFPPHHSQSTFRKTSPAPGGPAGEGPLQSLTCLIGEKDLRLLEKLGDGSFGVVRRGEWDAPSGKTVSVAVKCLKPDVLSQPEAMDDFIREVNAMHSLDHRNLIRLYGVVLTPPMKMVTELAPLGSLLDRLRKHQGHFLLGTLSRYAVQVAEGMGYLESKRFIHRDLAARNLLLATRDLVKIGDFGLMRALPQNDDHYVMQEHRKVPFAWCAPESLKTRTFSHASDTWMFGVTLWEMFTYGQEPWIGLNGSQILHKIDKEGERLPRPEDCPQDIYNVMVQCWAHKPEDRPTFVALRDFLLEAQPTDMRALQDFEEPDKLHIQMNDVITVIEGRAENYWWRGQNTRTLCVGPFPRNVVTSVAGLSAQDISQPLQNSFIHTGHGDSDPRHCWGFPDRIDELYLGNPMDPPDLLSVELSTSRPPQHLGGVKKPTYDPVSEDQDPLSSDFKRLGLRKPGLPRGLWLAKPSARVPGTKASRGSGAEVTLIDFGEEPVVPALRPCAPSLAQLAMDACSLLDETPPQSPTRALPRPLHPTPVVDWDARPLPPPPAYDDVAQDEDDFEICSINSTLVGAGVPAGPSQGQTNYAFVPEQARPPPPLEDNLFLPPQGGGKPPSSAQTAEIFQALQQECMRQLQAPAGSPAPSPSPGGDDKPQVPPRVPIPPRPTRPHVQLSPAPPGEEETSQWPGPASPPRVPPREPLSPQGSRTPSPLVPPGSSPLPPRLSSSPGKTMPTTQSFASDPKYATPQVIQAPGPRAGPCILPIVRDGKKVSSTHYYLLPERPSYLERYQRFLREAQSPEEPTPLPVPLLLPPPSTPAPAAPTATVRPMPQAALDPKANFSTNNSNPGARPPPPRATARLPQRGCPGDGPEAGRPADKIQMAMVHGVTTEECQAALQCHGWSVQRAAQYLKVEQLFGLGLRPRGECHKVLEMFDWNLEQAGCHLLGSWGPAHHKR"}, "340 wild-type kinases [4]": {"molecular_target": "T4, 340 wild-type kinases (Homo sapiens, UniProt Q09013)", "T4 construct": "purchased Reaction Biology Europe", "T4 sequence (Q09013 1-629)": "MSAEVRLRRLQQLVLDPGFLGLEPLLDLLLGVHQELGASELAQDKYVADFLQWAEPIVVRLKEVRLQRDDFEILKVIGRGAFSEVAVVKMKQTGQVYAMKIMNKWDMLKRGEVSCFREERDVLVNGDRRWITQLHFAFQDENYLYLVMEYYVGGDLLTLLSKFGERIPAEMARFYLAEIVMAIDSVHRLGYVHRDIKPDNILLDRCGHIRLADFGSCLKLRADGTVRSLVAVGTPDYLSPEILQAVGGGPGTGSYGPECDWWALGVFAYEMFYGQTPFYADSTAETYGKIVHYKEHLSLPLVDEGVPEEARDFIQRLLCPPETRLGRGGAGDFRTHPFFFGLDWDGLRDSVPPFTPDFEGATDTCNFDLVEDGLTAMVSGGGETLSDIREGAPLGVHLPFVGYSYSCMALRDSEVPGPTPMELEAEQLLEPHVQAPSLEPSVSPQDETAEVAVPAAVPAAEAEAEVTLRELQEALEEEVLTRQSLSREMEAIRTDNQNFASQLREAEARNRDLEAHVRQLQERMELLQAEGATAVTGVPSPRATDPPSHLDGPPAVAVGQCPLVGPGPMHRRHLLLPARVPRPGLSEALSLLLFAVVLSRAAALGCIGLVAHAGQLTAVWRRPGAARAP"}, "340 wild-type kinases [5]": {"molecular_target": "T5, 340 wild-type kinases (Homo sapiens, UniProt P35916)", "T5 construct": "purchased Reaction Biology Europe", "T5 sequence (P35916 25-1363)": "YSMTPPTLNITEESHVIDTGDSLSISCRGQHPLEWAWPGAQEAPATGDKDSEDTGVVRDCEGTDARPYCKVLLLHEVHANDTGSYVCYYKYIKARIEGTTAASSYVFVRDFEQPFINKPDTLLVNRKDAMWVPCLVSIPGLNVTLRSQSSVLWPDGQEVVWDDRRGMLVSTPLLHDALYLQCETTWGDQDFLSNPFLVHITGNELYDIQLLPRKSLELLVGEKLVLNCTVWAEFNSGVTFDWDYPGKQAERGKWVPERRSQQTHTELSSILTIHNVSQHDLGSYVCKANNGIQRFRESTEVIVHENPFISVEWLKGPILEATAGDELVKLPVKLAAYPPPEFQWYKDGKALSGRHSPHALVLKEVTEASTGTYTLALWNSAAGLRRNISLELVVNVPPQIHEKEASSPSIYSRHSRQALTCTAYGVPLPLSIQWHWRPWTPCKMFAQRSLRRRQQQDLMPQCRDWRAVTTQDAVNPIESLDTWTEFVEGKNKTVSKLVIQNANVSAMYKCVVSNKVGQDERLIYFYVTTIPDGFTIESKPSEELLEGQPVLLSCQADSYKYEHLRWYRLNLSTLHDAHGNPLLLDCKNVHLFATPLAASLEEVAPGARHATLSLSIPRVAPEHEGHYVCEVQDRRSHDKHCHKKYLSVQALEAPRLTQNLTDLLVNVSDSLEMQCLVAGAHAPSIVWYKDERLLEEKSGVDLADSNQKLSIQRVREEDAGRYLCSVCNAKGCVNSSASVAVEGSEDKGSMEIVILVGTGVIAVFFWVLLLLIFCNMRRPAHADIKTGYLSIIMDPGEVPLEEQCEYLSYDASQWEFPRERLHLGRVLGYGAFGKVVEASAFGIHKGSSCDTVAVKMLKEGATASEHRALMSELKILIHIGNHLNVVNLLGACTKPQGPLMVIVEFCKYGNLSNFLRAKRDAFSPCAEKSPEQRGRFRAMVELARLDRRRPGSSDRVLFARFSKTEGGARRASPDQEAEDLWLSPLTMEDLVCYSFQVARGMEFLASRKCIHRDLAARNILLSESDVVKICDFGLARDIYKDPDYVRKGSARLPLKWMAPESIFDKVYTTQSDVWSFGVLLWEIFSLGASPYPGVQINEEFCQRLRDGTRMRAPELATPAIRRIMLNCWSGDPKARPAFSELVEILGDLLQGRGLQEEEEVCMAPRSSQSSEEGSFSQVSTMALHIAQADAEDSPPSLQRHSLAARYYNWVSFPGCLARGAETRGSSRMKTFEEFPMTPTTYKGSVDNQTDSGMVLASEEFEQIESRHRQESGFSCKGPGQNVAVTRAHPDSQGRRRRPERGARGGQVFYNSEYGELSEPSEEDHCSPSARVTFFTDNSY"}, "340 wild-type kinases [6]": {"molecular_target": "T6, 340 wild-type kinases (Homo sapiens, UniProt Q00537)", "T6 construct": "purchased Reaction Biology Europe", "T6 sequence (Q00537 whole entry)": "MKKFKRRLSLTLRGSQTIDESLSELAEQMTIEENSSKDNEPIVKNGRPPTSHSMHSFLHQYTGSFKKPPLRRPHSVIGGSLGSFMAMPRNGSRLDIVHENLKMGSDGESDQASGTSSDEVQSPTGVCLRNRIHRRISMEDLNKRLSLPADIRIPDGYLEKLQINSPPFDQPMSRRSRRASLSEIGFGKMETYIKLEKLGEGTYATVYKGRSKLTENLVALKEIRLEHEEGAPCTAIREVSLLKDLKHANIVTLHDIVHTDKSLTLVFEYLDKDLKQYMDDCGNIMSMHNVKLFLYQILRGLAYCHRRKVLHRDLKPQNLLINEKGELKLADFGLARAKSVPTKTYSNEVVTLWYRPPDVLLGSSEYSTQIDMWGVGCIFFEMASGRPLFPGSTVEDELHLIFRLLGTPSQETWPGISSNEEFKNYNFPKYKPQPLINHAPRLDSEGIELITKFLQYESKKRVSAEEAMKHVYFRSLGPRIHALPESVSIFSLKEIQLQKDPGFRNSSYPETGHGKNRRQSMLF"}, "340 wild-type kinases [7]": {"molecular_target": "T7, 340 wild-type kinases (Homo sapiens, UniProt Q96BR1)", "T7 construct": "purchased Reaction Biology Europe", "T7 sequence (Q96BR1 1-496)": "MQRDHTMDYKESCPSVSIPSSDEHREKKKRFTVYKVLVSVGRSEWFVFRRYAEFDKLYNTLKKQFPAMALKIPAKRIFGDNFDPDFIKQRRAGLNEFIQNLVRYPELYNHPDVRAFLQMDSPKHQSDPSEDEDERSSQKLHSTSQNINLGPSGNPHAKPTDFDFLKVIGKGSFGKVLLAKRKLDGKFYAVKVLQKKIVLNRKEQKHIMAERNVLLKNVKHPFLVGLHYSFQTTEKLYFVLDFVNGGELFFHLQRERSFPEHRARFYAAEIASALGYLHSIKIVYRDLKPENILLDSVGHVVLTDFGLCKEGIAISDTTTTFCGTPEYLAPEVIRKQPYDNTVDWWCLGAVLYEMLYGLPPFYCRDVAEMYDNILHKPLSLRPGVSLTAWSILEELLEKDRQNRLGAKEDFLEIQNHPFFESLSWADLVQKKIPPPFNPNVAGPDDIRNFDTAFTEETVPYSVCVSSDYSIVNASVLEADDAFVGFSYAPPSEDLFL"}, "340 wild-type kinases [8]": {"molecular_target": "T8, 340 wild-type kinases (Homo sapiens, UniProt Q96RG2)", "T8 construct": "purchased Reaction Biology Europe", "T8 sequence (Q96RG2 whole entry)": "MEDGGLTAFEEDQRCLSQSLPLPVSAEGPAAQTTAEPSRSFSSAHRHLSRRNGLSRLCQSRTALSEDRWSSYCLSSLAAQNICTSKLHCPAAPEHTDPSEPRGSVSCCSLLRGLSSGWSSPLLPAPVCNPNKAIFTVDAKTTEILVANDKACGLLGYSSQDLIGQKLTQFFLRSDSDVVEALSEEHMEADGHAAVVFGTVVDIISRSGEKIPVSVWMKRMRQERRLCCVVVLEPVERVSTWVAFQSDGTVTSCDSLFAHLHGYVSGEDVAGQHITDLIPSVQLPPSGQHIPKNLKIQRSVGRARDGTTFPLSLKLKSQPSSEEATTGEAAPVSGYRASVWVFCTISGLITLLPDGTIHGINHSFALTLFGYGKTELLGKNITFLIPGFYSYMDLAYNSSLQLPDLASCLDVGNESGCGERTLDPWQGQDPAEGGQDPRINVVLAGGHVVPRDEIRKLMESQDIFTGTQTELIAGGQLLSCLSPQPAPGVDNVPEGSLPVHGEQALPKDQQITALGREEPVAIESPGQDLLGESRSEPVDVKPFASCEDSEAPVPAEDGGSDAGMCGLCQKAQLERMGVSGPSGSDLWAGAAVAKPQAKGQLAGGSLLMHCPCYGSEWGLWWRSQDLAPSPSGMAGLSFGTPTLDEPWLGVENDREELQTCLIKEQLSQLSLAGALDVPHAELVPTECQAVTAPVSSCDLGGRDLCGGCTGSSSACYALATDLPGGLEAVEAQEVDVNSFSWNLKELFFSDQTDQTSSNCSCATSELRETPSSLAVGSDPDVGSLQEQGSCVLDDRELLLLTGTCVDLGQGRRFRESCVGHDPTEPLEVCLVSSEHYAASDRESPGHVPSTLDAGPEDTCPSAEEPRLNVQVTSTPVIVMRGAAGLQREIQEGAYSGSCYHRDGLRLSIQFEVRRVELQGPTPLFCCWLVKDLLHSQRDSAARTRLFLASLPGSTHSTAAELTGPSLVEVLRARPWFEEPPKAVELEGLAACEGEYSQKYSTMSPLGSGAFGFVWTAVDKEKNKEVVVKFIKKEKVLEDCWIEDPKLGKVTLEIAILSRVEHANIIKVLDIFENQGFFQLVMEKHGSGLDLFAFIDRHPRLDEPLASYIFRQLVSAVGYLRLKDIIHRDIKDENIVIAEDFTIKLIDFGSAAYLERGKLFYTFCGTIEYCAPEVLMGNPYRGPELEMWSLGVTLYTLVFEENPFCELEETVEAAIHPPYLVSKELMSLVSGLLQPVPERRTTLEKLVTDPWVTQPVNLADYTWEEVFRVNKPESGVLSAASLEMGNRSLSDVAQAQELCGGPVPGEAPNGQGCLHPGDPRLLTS"}}, "note": "Read-outs that look alike come from different tables or passages of the source.", "data": [{"smiles": "CNC(=O)c1ccc2c(c1)C(=O)c1ccc(Nc3ccc(F)c(NC(=O)C4CC4)c3)cc1CC2", "note": "[Compound 2015]", "values": [{"measurement": "remaining activity at 0.2 µM", "setting": "340 wild-type kinases [1]; 0.2 µM 2015, read-out: RIPK5 residual activity", "value": 92.4, "unit": "%"}, {"measurement": "remaining activity at 1 µM", "setting": "340 wild-type kinases [1]; 1 µM 2015, read-out: RIPK5 residual activity", "value": 88.1, "unit": "%"}, {"measurement": "remaining activity at 0.2 µM", "setting": "340 wild-type kinases [1]; RIPK5, 0.2 µM, read-out: residual activity", "value": 92.4, "unit": "%"}, {"measurement": "remaining activity at 1 µM", "setting": "340 wild-type kinases [1]; RIPK5, 1 µM, read-out: residual activity", "value": 88.1, "unit": "%"}, {"measurement": "remaining activity at 0.2 µM", "setting": "340 wild-type kinases [2]; 0.2 µM 2015, read-out: SIK1 residual activity", "value": 90.9, "unit": "%"}, {"measurement": "remaining activity at 1 µM", "setting": "340 wild-type kinases [2]; 1 µM 2015, read-out: SIK1 residual activity", "value": 85.5, "unit": "%"}, {"measurement": "remaining activity at 0.2 µM", "setting": "340 wild-type kinases [2]; SIK1, 0.2 µM, read-out: residual activity", "value": 90.9, "unit": "%"}, {"measurement": "remaining activity at 1 µM", "setting": "340 wild-type kinases [2]; SIK1, 1 µM, read-out: residual activity", "value": 85.5, "unit": "%"}, {"measurement": "remaining activity at 0.2 µM", "setting": "340 wild-type kinases [3]; 0.2 µM 2015, read-out: ACK1 residual activity", "value": 110, "unit": "%"}, {"measurement": "remaining activity at 1 µM", "setting": "340 wild-type kinases [3]; 1 µM 2015, read-out: ACK1 residual activity", "value": 108, "unit": "%"}, {"measurement": "remaining activity at 0.2 µM", "setting": "340 wild-type kinases [3]; ACK1, 0.2 µM, read-out: residual activity", "value": 110, "unit": "%"}, {"measurement": "remaining activity at 1 µM", "setting": "340 wild-type kinases [3]; ACK1, 1 µM, read-out: residual activity", "value": 108, "unit": "%"}, {"measurement": "remaining activity at 0.2 µM", "setting": "340 wild-type kinases [4]; 0.2 µM 2015, read-out: DMPK residual activity", "value": 82.9, "unit": "%"}, {"measurement": "remaining activity at 1 µM", "setting": "340 wild-type kinases [4]; 1 µM 2015, read-out: DMPK residual activity", "value": 90.2, "unit": "%"}, {"measurement": "remaining activity at 0.2 µM", "setting": "340 wild-type kinases [4]; DMPK, 0.2 µM, read-out: residual activity", "value": 82.9, "unit": "%"}, {"measurement": "remaining activity at 1 µM", "setting": "340 wild-type kinases [4]; DMPK, 1 µM, read-out: residual activity", "value": 90.2, "unit": "%"}, {"measurement": "remaining activity at 0.2 µM", "setting": "340 wild-type kinases [5]; 0.2 µM 2015, read-out: VEGFR3 residual activity", "value": 109, "unit": "%"}, {"measurement": "remaining activity at 1 µM", "setting": "340 wild-type kinases [5]; 1 µM 2015, read-out: VEGFR3 residual activity", "value": 94.2, "unit": "%"}, {"measurement": "remaining activity at 0.2 µM", "setting": "340 wild-type kinases [5]; VEGFR3, 0.2 µM, read-out: residual activity", "value": 109, "unit": "%"}, {"measurement": "remaining activity at 1 µM", "setting": "340 wild-type kinases [5]; VEGFR3, 1 µM, read-out: residual activity", "value": 94.2, "unit": "%"}, {"measurement": "remaining activity at 0.2 µM", "setting": "340 wild-type kinases [6]; 0.2 µM 2015, read-out: CDK17/p35NCK residual activity", "value": 94.8, "unit": "%"}, {"measurement": "remaining activity at 1 µM", "setting": "340 wild-type kinases [6]; 1 µM 2015, read-out: CDK17/p35NCK residual activity", "value": 93.6, "unit": "%"}, {"measurement": "remaining activity at 1 µM", "setting": "340 wild-type kinases [6]; CDK17/p35NCK, 1 µM, read-out: residual activity", "value": 93.6, "unit": "%"}, {"measurement": "remaining activity at 0.2 µM", "setting": "340 wild-type kinases [7]; 0.2 µM 2015, read-out: SGK3 residual activity", "value": 107, "unit": "%"}, {"measurement": "remaining activity at 1 µM", "setting": "340 wild-type kinases [7]; 1 µM 2015, read-out: SGK3 residual activity", "value": 92.1, "unit": "%"}, {"measurement": "remaining activity at 0.2 µM", "setting": "340 wild-type kinases [7]; SGK3, 0.2 µM, read-out: residual activity", "value": 107, "unit": "%"}, {"measurement": "remaining activity at 1 µM", "setting": "340 wild-type kinases [7]; SGK3, 1 µM, read-out: residual activity", "value": 92, "unit": "%"}, {"measurement": "remaining activity at 0.2 µM", "setting": "340 wild-type kinases [8]; 0.2 µM 2015, read-out: PASK residual activity", "value": 99.2, "unit": "%"}, {"measurement": "remaining activity at 1 µM", "setting": "340 wild-type kinases [8]; 1 µM 2015, read-out: PASK residual activity", "value": 95.1, "unit": "%"}, {"measurement": "remaining activity at 0.2 µM", "setting": "340 wild-type kinases [8]; PASK, 0.2 µM, read-out: residual activity", "value": 99.2, "unit": "%"}, {"measurement": "remaining activity at 1 µM", "setting": "340 wild-type kinases [8]; PASK, 1 µM, read-out: residual activity", "value": 95.1, "unit": "%"}]}]}
